According to PMC8154419, “Druggable Hot Spots in the Schistosomiasis Cathepsin B1 Target Identified by Functional and Binding Mode Analysis of Potent Vinyl Sulfone Inhibitors” (ACS Infectious Diseases, 2020):
Several values for one entry are separate records, joined by “and”; a condition that tells them apart may be missing. Identical values can stand only once.

molecular target: SmCB1 (Schistosoma mansoni, UniProt Q8MNY2, T185A/T300A); assay: SmCB1 kinetic inhibition assay (IC50) with fluorogenic substrate Cbz–Phe–Arg–AMC; assay type: biochemical; settings: recombinant SmCB1, Cbz–Phe–Arg–AMC, pH 5.5; mean ± SE, triplicate; n.i.: no significant inhibition at 100 μM
Sequence (Q8MNY2 87-340 T185A/T300A): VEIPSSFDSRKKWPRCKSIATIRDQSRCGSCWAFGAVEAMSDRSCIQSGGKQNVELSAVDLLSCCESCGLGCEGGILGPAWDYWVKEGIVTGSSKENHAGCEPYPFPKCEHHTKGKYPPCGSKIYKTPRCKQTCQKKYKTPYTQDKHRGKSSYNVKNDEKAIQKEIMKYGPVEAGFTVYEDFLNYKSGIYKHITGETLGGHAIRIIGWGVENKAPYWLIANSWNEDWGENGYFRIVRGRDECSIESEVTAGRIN
Excerpt: Thirty-four peptidomimetic vinyl sulfone analogs (including vinyl sulfonamides and vinyl sulfonate esters) were explored as potential inhibitors of SmCB1 to infer the structural requirements of the inhibitor-binding subsites in the enzyme active site cleft. The compound scaffold is defined by positions P3 through P1′, and the substitutions were selected to provide a high diversity at P2 and P1′ (Table 1). These two positions were recently reported to display large differences in the subsite interaction energy in response to their structural modifications.[10] The compounds were screened in vitro against recombinant SmCB1, and their IC50 values were determined using a kinetic inhibition assay with the fluorogenic substrate Cbz–Phe–Arg–AMC.
Inhibition measurements were performed in triplicates in 96-well microplates (100 μL assay volume) at 37 °C. […] The kinetics of product release was continuously monitored in an Infinite M1000 microplate reader (Tecan) at excitation and emission wavelengths of 360 and 465 nm, respectively. The IC50 values were determined by nonlinear regression using GraFit software. To determine the inhibition constant k2nd, the enzyme (40 pM SmCB1 or 60 pM HuCB) was added to a mixture of the fluorogenic substrate Cbz–Phe–Arg–AMC (20 μM for SmCB1 and 33 μM for HuCB) and an inhibitor (0–1 μM) in the assay buffer under assay conditions as above. The hydrolysis of substrate was monitored for 30 min in a microplate reader as described above. An observed rate constant, kobs, was calculated at each inhibitor concentration by fitting the progress curve to the equation P = vi/kobs(1 – e^–kobst), where P is the product formation, vi is the initial velocity, and t is the reaction time. For both enzymes, kobs varied linearly with the inhibitor concentration showing that the dependence of kobs on the inhibitor concentration is nonsaturating. […] The second order rate constant, k2nd, was determined by fitting to the linear equation kobs = (k2nd[I])/(1 + [S]/KM), where [S] is the substrate concentration, [I] is the inhibitor concentration, and KM is the Michaelis–Menten constant. KM values determined for SmCB1 and HuCB were 25 and 38 μM, respectively.

SMILES	IC50	Inhibition IC50
CCC[C@@H](/C=C/S(=O)(=O)c1ccccc1)NC(=O)[C@H](CSCc1ccccn1)NC1=NS(=O)(=O)c2ccccc21 [CRA-393]	3450 ± 346 nM	–
O=C(N[C@H](/C=C/S(=O)(=O)c1ccccc1)CCc1ccccc1)[C@H](CS(=O)(=O)Cc1ccccc1OC(F)F)NC(=O)N1CCOCC1 [CRA-012]	477 ± 43 nM	–
C[C@@H](/C=C/S(=O)(=O)Oc1ccccc1)NC(=O)[C@H](Cc1ccccc1)NC(=O)OCc1ccccc1 [WRR-199]	2.55 ± 0.2 nM	–
O=C(N[C@@H](Cc1ccccc1)C(=O)N[C@H](/C=C/S(=O)(=O)c1ccccn1)CCc1ccccc1)OCc1ccccc1 [WRR-255]	1.5 ± 0.13 nM	–
O=C(N[C@@H](Cc1ccccc1)C(=O)N[C@H](/C=C/S(=O)(=O)CCc1ccccc1)CCc1ccccc1)OCc1ccccc1 [WRR-257]	9520 ± 607 nM	–
CCC[C@@H](/C=C/S(=O)(=O)c1ccccc1)NC(=O)[C@H](Cc1ccccc1)NC(=O)N1CCC(N2CCOCC2)CC1 [CRA-446]	44.6 ± 6.1 nM	–
O=C(N[C@@H](Cc1cc(I)c(O)c(I)c1)C(=O)N[C@H](/C=C/S(=O)(=O)c1ccccc1)CCc1ccccc1)c1ccc(N2CCOCC2)cc1 [CRA-422]	665 ± 98 nM	–
O=C(N[C@@H](Cc1ccccc1)C(=O)N[C@H](/C=C/S(=O)(=O)Oc1ccc([N+](=O)[O-])cc1)CCc1ccccc1)OCc1ccccc1 [WRR-258]	50.1 ± 4.9 nM	–
CCC[C@@H](/C=C/S(=O)(=O)c1ccccc1)NC(=O)[C@H](Cc1c(F)cccc1F)NC(=O)c1ccc(-c2ccccc2Cl)cc1 [CRA-845]	–	n.i.
CCC[C@@H](/C=C/S(=O)(=O)c1ccccc1)NC(=O)[C@H](Cc1ccccc1Cl)NC1=NS(=O)(=O)c2ccccc21 [CRA-383]	10000 to 100000 nM	–
CCC[C@@H](/C=C/S(=O)(=O)c1ccccc1)NC(=O)[C@H](Cc1ccc2ccccc2c1)NC(=O)N1CCC(N2CCOCC2)CC1 [CRA-547]	~40 nM and 39.2 nM	–
C[C@@H](/C=C/S(=O)(=O)NCCc1ccccc1)NC(=O)[C@H](Cc1ccccc1)NC(=O)OCc1ccccc1 [WRR-186]	629 ± 57 nM	–
CCOC(=O)C1CCN(C(=O)N[C@@H](CC2CCCCC2)C(=O)N[C@H](/C=C/S(=O)(=O)c2ccccc2)CCc2ccccc2)CC1 [WRR-436]	72.1 ± 9.1 nM	–
CCCC[C@@H](/C=C/S(=O)(=O)c1ccccc1)NC(=O)[C@H](Cc1cc(I)c(O)c(I)c1)NC(=O)OC(C)(C)C [CRA-372]	6250 ± 322 nM	–
O=C(N[C@H](/C=C/S(=O)(=O)c1ccccc1)CCc1ccccc1)[C@H](CS(=O)(=O)Cc1ccccc1)NC(=O)N1CCOCC1 [CRA-891]	212 ± 10 nM	–
CCCC[C@@H](/C=C/S(=O)(=O)c1ccccc1)NC(=O)[C@H](Cc1ccccc1)NC(=O)N1CCC(N2CCCCC2)CC1 [CRA-892]	7.5 ± 0.58 nM	–
C[C@@H](/C=C/S(=O)(=O)NCc1ccc(F)cc1F)NC(=O)[C@H](Cc1ccccc1)NC(=O)OCc1ccccc1 [WRR-197]	1130 ± 120 nM	–
CCCC[C@@H](/C=C/S(=O)(=O)c1ccccc1)NC(=O)[C@@H](N)Cc1cc(I)c(O)c(I)c1 [CRA-373]	425 ± 46 nM	–
CCC[C@@H](/C=C/S(=O)(=O)c1ccccc1)NC(=O)[C@H](CC1CCCCC1)NC=NS(=O)(=O)c1ccccc1 [CRA-359]	9990 ± 280 nM	–
O=C(N[C@H](/C=C/S(=O)(=O)c1ccccc1)CCc1ccccc1)[C@H](CCS(=O)(=O)c1ccccc1)NC(=O)N1CCOCC1 [CRA-009]	186 ± 19 nM	–
C[C@@H](/C=C/S(=O)(=O)NCc1ccc(F)cc1)NC(=O)[C@H](Cc1ccccc1)NC(=O)OCc1ccccc1 [WRR-196]	1250 ± 173 nM	–
CNS(=O)(=O)/C=C/[C@H](C)NC(=O)[C@H](Cc1ccccc1)NC(=O)OCc1ccccc1 [WRR-206]	93.7 ± 7.3 nM	–
CN1CCN(C(=O)N[C@@H](Cc2ccccc2)C(=O)N[C@H](/C=C/S(=O)(=O)Oc2ccc(F)cc2)CCc2ccccc2)CC1 [WRR-353]	119 ± 16 nM	–
CCCC[C@@H](/C=C/S(=O)(=O)c1ccccc1)NC(=O)[C@H](Cc1ccccc1)NC(=O)N1CCC(N2CCOCC2)CC1 [CRA-553]	13.2 ± 1.3 nM	–
O=C(N[C@H](/C=C/S(=O)(=O)c1ccccc1)CCc1ccccc1)[C@H](Cc1ccccc1)NC(=O)N1CCC(N2CCOCC2)CC1 [CRA-554]	6 ± 0.89 nM	–
CCC[C@@H](/C=C/S(=O)(=O)c1ccccc1)NC(=O)[C@H](Cc1ccc(F)cc1)NC(=O)N1CCC(N2CCOCC2)CC1 [CRA-552]	202 ± 25 nM	–
C[C@@H](/C=C/S(=O)(=O)NCc1ccc(Cl)cc1)NC(=O)[C@H](Cc1ccccc1)NC(=O)OCc1ccccc1 [WRR-201]	541 ± 76 nM	–
CCC[C@@H](/C=C/S(=O)(=O)c1ccccc1)NC(=O)C1(NC(=O)N2CCN(C)CC2)CCCCC1 [CRA-555]	–	n.i.
